Results on six compounds are retold here after US20030104473A1, “Common ligand mimics: benzimidazoles” (priority 2001, published 2003).

Where two headings read alike, the source gives them in different places.

Experiment [1] has as its target dihydrodipicolinate reductase (DHPR) (Escherichia coli, UniProt P04036). The experiment can be described thus: DHPR kinetic assay, spectrophotometric oxidation of NADPH at 340 nm. The experiment is classed as biochemical. As to the method:
For DHPR analysis, the compounds were screened using a kinetic protocol that spectrophotometrically evaluates oxidation of NADPH.
Stock solutions of each of the reagents were prepared in the following concentrations. Dilutions of the stock solutions were prepared prior to running the assay in the concentrations indicated below. DHPR was diluted in 10 mM HEPES at a pH of 7.4. DHPS (dihydrodipicolinate synthase) was not diluted and was stored in eppindorf tubes.
The L-ASA (L-aspartate semialdehyde) solution was prepared in the following manner. […] stock solution of ASA was prepared. 100 μl of the ASA stock solution was mixed with 150 μl of concentrated NaHCO3 and 375 μl of H2O. For use in the assay, 28.8 mM L-ASA was equal to 625 μl of the solution. The L-ASA stock Aft solution was kept at a temperature of −20° C. After dilution, the pH of the 28.8 mM solution was checked and maintained between 1 and 2.
The DHPS reaction was monitored at 340 nm prior to and after addition of the inhibitor to detect background reaction with the inhibitor. The solution for background detection was a 945 μl solution containing 0.1 HEPES (pH 7.8), 1 mM pyruvate, 6 μM NADPH, 40 μM L-ASA, and 7 μl of 1 mg/ml DHPS at 25° C. in the volumes provided above. The sample solution was then mixed and incubated for 10 minutes. Next, 500 nM solutions of the inhibitors and enough DMSO to provide a final DMSO concentration of 5% of the total assay volume were added. The solution was mixed and incubated for an additional 6 minutes.
In DHPR samples, 5 μl of the diluted DHPR enzyme were added. The sample was mixed for 20 seconds and then the reaction was run for 10 minutes. After a 50 second lag, the samples were read in a Cary spectrophotometer at 340 nm. Reading of the samples was continued until 300 seconds. Cuvette #1 contained the control reaction (no inhibitor), and cuvette #2 contained the positive control reaction in which Cibacron Blue at 2.58 μM was substituted for inhibitor to yield 70 to 80% inhibition. The substrate was kept at a level at least 10 times the Km. The final concentration of L-ASA was about 1 mM.

Experiment [2] has as its target 1-deoxy-D-xylulose-5-phosphate reductase (DOXPR) (Escherichia coli, UniProt P45568). Put plainly: DOXPR kinetic assay, spectrophotometric oxidation of NADPH at 340 nm. The following applies: Cibacron Blue at 10.32 μM; read-out: inhibition of DOXPR (positive control). The experiment is classed as biochemical. On the procedure: For DOXPR analysis, the compounds were screened using a kinetic protocol that spectrophotometrically evaluates oxidation of NADPH.
Stock solutions of each of the reagents were prepared in the following concentrations. Dilutions of the stock solutions were prepared prior to running the assay in the concentrations indicated below. DOXPR was diluted in 10 mM HEPES at a pH of 7.4.
The DOXPR reaction was monitored at 340 nm prior to and after addition of the inhibitor to detect background reaction with the inhibitor. Solutions of the inhibitors in DMSO were prepared to provide a final DMSO concentration of 5% of the total assay volume. These solutions were incubated for 6 minutes at 25° C. in a 990 μl of a solution containing 0.1 M HEPES, pH 7.4, 1 mM MnCl21.15 mM DOXP, and 8 μM NADPH. The oxidation reaction was then initiated with 10 μl of DOXP reductoisomerase (10 μg/ml). After the enzyme was added, the solution was mixed for 20 seconds, and the reaction was run for 10 minutes. After a 50 second lag, the samples were read in a Cary spectrophotometer at 340 nm. Reading of the samples was continued until 300 seconds. Cuvette #1 contained the control reaction (no inhibitor), and cuvette #2 contained the positive control reaction in which Cibacron Blue at 10.32 μM was substituted for inhibitor to yield 70 to 80% inhibition. The substrate was kept at a level at least 10 times the Km.

Experiment [3] has as its target T1, alcohol dehydrogenase (ADH) (Saccharomyces cerevisiae, UniProt P00330).
T1 construct: 10 μl of ADH from Bakers Yeast; host or cells: baker's yeast
T1 sequence (P00330 1-348): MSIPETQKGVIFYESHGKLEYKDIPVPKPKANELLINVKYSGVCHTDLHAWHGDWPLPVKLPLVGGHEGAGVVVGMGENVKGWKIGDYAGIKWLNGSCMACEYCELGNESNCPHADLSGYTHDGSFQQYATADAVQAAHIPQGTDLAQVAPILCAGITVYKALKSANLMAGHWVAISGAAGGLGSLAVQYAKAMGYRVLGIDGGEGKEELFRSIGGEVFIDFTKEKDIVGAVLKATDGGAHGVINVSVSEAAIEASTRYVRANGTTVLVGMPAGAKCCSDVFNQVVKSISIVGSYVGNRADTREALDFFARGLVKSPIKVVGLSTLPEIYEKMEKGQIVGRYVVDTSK
The experiment can be described thus: ADH kinetic assay, spectrophotometric reduction of NAD+ at 340 nm. The experiment is classed as biochemical, Bakers Yeast. The following applies: Cibacron Blue at 15.5 μM; read-out: inhibition of ADH (positive control). As to the method:
For ADH analysis, the compounds were screened using a kinetic protocol that spectrophotometrically evaluates reduction of NAD+.
(§1) Stock solutions of each of the reagents were prepared in the following concentrations. Dilutions of the stock solutions were prepared prior to running the assay in the concentrations indicated below.
The ADH reaction was monitored at 340 nm prior to and after addition of the inhibitor to detect background reaction with the inhibitor. Solutions of 100 μl of the inhibitors in DMSO were prepared to provide a final DMSO concentration of 5% of the total assay volume. These solutions were incubated for 6 minutes at 25° C. in a 990 μl of a solution containing 0.1 M HEPES, pH 8.0, 80 μM NAD+, and 130 mM of ethanol. The reaction was then initiated with 10 μl of ADH from Bakers Yeast ([…]; 1:400 dilution of 1.0 mg/ml). After the enzyme was added, the solution was mixed for 20 seconds, and the reaction was run for 10 minutes. After a 50 second lag, the samples were read in a Cary spectrophotometer at 340 nm. Reading of the samples was continued until 300 seconds. Cuvette #1 contained the control reaction (no inhibitor), and cuvette #2 contained the positive control reaction in which Cibacron Blue at 15.5 μM was substituted for inhibitor to yield 50 to 60% inhibition. The substrate was kept at a level at least 10 times the Km. The final concentration of […] was about 2.5 mM.
Where only a simple read was desired, as in the case of NAD+ concentration determination, 13 μl (10 M stock) of ethanol was used to drive the reaction, and 10 μl of pure enzyme (1 mg/ml) was used. NAD+was soluble at 2 mM, which allowed the concentration determination step to be skipped. In this situation, the procedure was as follows. All of the ingredients except for the enzyme were mixed together. The solution was mixed well and the absorbance at 340 nm read. The enzyme was added and read again at OD 340 after the absorbance stopped changing, generally 10 to 15 minutes after the enzyme was added.

The target of experiment [4] is T2, lactate dehydrogenase (LDH) (Oryctolagus cuniculus, UniProt P13491).
T2 construct: 10 μl of LDH from Rabbit Muscle; from tissue; host or cells: rabbit muscle
The experiment can be described thus: LDH kinetic assay, spectrophotometric oxidation of NADH at 340 nm. The experiment is classed as biochemical, Rabbit Muscle. The following applies: Cibacron Blue at 10.3 μM; read-out: inhibition of LDH (positive control). On the procedure: For LDH analysis, the compounds were screened using a kinetic protocol that spectrophotometrically evaluates oxidation of NADH.
as §1
The LDH reaction was monitored at 340 nm prior to and after addition of the inhibitor to detect background reaction with the inhibitor. Solutions of 100 μl of the inhibitors in DMSO were prepared to provide a final DMSO concentration of 5% of the total assay volume. These solutions were incubated for 6 minutes at 25° C. in a 990 μl of a solution containing 0.1 M HEPES, pH 7.4, 10 μM NADH, and 2.5 mM of pyruvate. The reaction was then initiated with 10 μl of LDH from Rabbit Muscle (0.5 μg/ml; 1:2000 dilution of 1.0 mg/ml). After the enzyme was added, the solution was mixed for 20 seconds, and the reaction was run for 10 minutes. After a 50 second lag, the samples were read in a Cary spectrophotometer at 340 nm. Reading of the samples was continued until 300 seconds. Cuvette #1 contained the control reaction (no inhibitor), and cuvette #2 contained the positive control reaction in which Cibacron Blue at 10.3 μM was substituted for inhibitor to yield 50 to 70% inhibition. The substrate was kept at a level at least 10 times the Km.

Setting [5] is: Example 14, common ligand mimics (FIG. 8), read-out: IC50 for DHPR.
[6] abbreviates: Example 15, bi-ligands (FIG. 9), read-out: IC50 value for dihydrodipicolinate reductase (DHPR).

dihydrodipicolinate reductase (DHPR), sequence (P04036 whole entry): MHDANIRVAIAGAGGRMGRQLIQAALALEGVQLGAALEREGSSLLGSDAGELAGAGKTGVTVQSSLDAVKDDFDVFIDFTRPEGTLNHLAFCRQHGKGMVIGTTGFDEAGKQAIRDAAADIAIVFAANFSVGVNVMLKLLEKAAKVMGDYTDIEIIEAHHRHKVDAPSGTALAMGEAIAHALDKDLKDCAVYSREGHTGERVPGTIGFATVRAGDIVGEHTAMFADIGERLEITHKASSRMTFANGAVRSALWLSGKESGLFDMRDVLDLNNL
1-deoxy-D-xylulose-5-phosphate reductase (DOXPR), sequence (P45568 whole entry): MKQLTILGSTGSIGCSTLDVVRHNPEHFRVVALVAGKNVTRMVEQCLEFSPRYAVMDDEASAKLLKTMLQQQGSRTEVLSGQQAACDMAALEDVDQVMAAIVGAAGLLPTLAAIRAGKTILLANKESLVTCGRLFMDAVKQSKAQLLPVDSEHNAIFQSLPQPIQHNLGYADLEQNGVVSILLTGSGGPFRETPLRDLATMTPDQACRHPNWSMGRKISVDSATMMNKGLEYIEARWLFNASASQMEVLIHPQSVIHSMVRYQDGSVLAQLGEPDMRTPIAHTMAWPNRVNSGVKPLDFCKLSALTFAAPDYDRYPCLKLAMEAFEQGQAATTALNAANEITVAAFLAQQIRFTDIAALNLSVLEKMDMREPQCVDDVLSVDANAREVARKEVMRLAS

As usually defined, the IC50 is the concentration needed to halve the response being measured. For the compound `COC(=O)c1ccc(-c2ccc(-c3nc4cc([N+](=O)[O-])ccc4[nH]3)o2)cc1` [4-[5-(5-nitro-1H-benzoimidazol-2-yl)-furan-2-yl]-benzoic acid methyl ester], the IC50 in experiment [1] (setting [5]) was > 25 µM.

One may read the inhibition as the relative decrease from the control value, in per cent. Turning to `Nc1c(S(=O)(=O)O)cc(Nc2ccc(Nc3nc(Cl)nc(Nc4ccccc4S(=O)(=O)O)n3)c(S(=O)(=O)O)c2)c2c1C(=O)c1ccccc1C2=O` [Cibacron Blue, reference compound], the inhibition at 2.58 µM in experiment [1] (Cibacron Blue at 2.58 μM, read-out: inhibition of DHPR (positive control)) was in the range of 70 to 80%. Besides, in experiment [2], the inhibition at 10.32 µM was 70 to 80%. For the same compound, the inhibition at 15.5 µM in experiment [3] was 50 to 60%. Further, in experiment [4], the inhibition at 10.3 µM was 50 to 70%.

In the case of `Cc1cccc2[nH]c(-c3ccc(-c4ccc(C(=O)O)cc4)o3)nc12` [compound 6a, 4-[5-(4-methyl-1H-benzimidazol-2-yl)-furan-2-yl]-benzoic acid], the IC50 in experiment [1] (setting [5]) is > 100 µM.

As for `Cc1ccc2[nH]c(-c3ccc(-c4ccc(C(=O)O)cc4)o3)nc2c1` [compound 6c, 4-[5-(5-methyl-1-benzoimidazol-2-yl)furan-2-yl]-benzoic acid], the IC50 in experiment [1] (setting [5]) was > 60 µM.

As to `O=C(NCCSc1cc(C(=O)O)nc(C(=O)O)c1)c1ccc(-c2ccc(-c3nc4cc([N+](=O)[O-])ccc4[nH]3)o2)cc1` [compound 21a, 4-(2-{4-[5-(5-nitro-1H-benzoimidazol-2-yl)-furan-2-yl]-benzoylamino)-ethylsulfanyl)-pyridine-2,6-dicarboxylic acid], the IC50 in experiment [1] (setting [6]) is ~0.758 µM.

Turning to `O=C(NCCSc1cc(C(=O)O)nc(C(=O)O)c1)c1ccc(-c2ccc(-c3nc4ccccc4[nH]3)o2)cc1` [compound 21b, 4-(2-{4-[5-(1H-benzoimidazol-2-yl)-furan-2-yl]-benzoylamino}-ethylsulfanyl)-pyridine-2,6-dicarbolxylic acid], the IC50 in experiment [1] (setting [6]) is > 1.6 µM.
